Source: patent US4677104A, “Antipsychotic fused-ring pyridinylpiperazine derivatives” (Bristol-Myers Company, priority 1986, dated 1987)

Assays:
Type in all cases: in vivo
[1] = test system: avoidance response to electrical shock in trained fasted rats; assay: Conditioned Avoidance Response (CAR); details: Rattus norvegicus, po
From the text: Conditioned Avoidance Response (CAR) - measure of a
drug's tranquilizing activity as determined by its
attenuation of avoidance response to electrical shock
in trained fasted rats. cf: Albert, Pharmacologist, 4,

[2] = test system: apomorphine-induced stereotypy in rats; assay: Inhibition of Apomorphine-Induced (APO) Stereotypy; details: Rattus norvegicus, po
From the text: 2. Inhibition of Apomorphine-Induced (APO) Stereotypy -
an assessment of blockade of dopaminergic activity in
rats as measured by attenuation of the behavioral
syndrome caused by the dopamine agonist, apomorphine.
of: Janssen, et al., Arzneimittel. Forsch., 17, 841

[3] = Catalepsy (drug-induced catalepsy); details: rat, in vivo, po, rats; read-out: Catalepsy Induction ED50
From the text: (§1) 3. Catalepsy - drug-induced catalepsy in rats is predic-
(§2) tive of potential extrapyramidal symptoms (EPS) in man.
(§3) of: Costall, et al., Psychopharmacologia, 34, 233-241

[4] = test system: neuroleptic-induced catalepsy in the rat; assay: Catalepsy Reversal; details: po
From the text: 4. Catalepsy Reversal - measure of a drug's ability to
reverse neuroleptic-induced catalepsy in the rat.

[5] = test system: drug-induced catalepsy in rats; assay: Catalepsy (drug-induced catalepsy); details: p.o.
From the text: as §1, §2, §3

SMILES	ED50 [1] [mg/kg]	ED50 [2] [mg/kg]	ED50 [3] [mg/kg]	ED50 [4] [mg/kg]	Catalepsy Induction ED50 [5]
Cc1cc2c(N3CCN(CCCCN4C(=O)SC5(CCCC5)C4=O)CC3)nccc2o1 [Example 40]	28	41	–	–	–
O=C1SC2(CCCC2)C(=O)N1CCCCN1CCN(c2nccc3occc23)CC1 [Example 37]	9	18	23	> 20	–
O=C1COCC(=O)N1CCCCN1CCN(c2nccc3occc23)CC1 [Example 25, 4-[4-[4-(4-Furo[3,2-c]pyridinyl)-1-piperazinyl]butyl]-3,5-morpholinedione]	11	34	> 46	2	–
CC1(C)CC(=O)N(CCCCN2CCN(c3nccc4sccc34)CC2)C(=O)C1 [Example 24, 4,4-Dimethyl-1-[4-[4-(thieno[3,2-c]pyridin-4-yl)-1-piperazinyl]butyl]-2,6-piperidinedione]	6	40	> 24	> 20	–
Cn1ccc2c(N3CCN(CCCCN4C(=O)CC(C)(C)CC4=O)CC3)nccc21 [Example 49]	67	> 100	–	> 20	–
Cn1ccc2c(N3CCN(CCCCN4C(=O)SC5(CCCC5)C4=O)CC3)nccc21 [Example 47]	60	61	–	> 20	–
O=C1SC2(CCCC2)C(=O)N1CCCCN1CCN(c2nccc3sccc23)CC1 [Example 26]	12	35	–	> 20	–
CC1(C)CC(=O)N(CCCCN2CCN(c3nccc4occc34)CC2)C(=O)C1 [Example 38]	4	7	13	> 20	–
O=C1SC2(CCCC2)C(=O)N1CCCCN1CCN(c2nccc3ccsc23)CC1 [Example 36]	43	47	–	> 20	–
Cc1cc2c(N3CCN(CCCC(O)c4ccc(F)cc4)CC3)nccc2o1 (centres unmarked) [Example 43]	23	–	–	> 20	–
O=C1SC2(CCCC2)C(=O)N1CCCCN1CCN(c2nccc3sc(Br)cc23)CC1 [Example 28]	> 100	> 100	–	16	–
CC1(C)CC(=O)N(CCCCN2CCN(c3nccc4sc(Br)cc34)CC2)C(=O)C1 [Example 29]	65	–	–	> 20	–
O=C1CSCC(=O)N1CCCCN1CCN(c2nccc3occc23)CC1 [Example 42]	36	63	–	> 20	–
O=C1CCCC(=O)N1CCCCN1CCN(c2nccc3sccc23)CC1 [Example 58]	5	56	–	> 20	Inactive at 4 ×
Cn1ccc2c(N3CCN(CCCCN4C(=O)COCC4=O)CC3)nccc21 [Example 48]	> 100	> 100	–	> 20	–
Cc1cc2c(N3CCN(CCCCN4C(=O)SC5(CCCC5)C4=O)CC3)nccc2s1 [Example 30]	35	–	> 142	> 20	–
OC(CCCN1CCN(c2nccc3occc23)CC1)c1ccc(F)cc1 (centres unmarked) [Example 39]	3	5	11	> 20	–
OC(CCCN1CCN(c2nccc3sccc23)CC1)c1ccc(F)cc1 (centres unmarked) [Example 27]	10	9	> 40	> 20	–
O=C1CSCC(=O)N1CCCCN1CCN(c2nccc3sccc23)CC1 [Example 31]	32	–	> 128	> 20	–
Cc1cc2c(N3CCN(CCCCN4C(=O)CC(C)(C)CC4=O)CC3)nccc2o1 [Example 41]	14	22	40	> 20	–
